For data set [1], the target named is Axl kinase (Homo sapiens (Human), UniProt P30530). Kind of data set: HTRF KinEASE TK kinase inhibition assay, Axl. It counts as biochemical. A general note: TR-FRET usually uses a lanthanide donor and a delayed reading to cut background.
In data set [2] the target is RET (Homo sapiens (Human), UniProt P07949). Kind of data set: HTRF KinEASE TK kinase inhibition assay, RET. The format is biochemical. As to the method: A study on inhibition of protein kinases activity at in vitro biochemical level
Material and method: kinases such as c-Met, VEGFR-2, Axl and RET, obtained from Invitrogen; HTRF KinEASE; TK kit (Cisbio Company); 384-well plate (Greiner Company); ATP (Sigma Company), MgCl2 (Sigma Company); PHERAstar FS multifunctional plate reader (BMG Company); conventional centrifuge (StaiteXiangyi Company); incubator (Binder Company).
Preparation of working solution of the compounds: Before test, aliquots of the compounds are removed from the refrigerator, and diluted with pure DMSO to 50× of the level needed; and then the compounds are diluted with deionized water to 4× of the level needed;
Preparation of 1.33× enzymatic buffer: 5× enzymatic buffer (from HTRF kit) is diluted to 1.33× with deionized water, and appropriate components of the final level 1.33× are added: 1.33 mmol/L dithiothreitol (DTT) and 1.33 mmol/L MgCl2;
Preparation of kinase working solution: Met is diluted to 2× final level required, 0.2 ng/μL, with 1.33× enzymatic buffer; […]
Reading HTRF signal: PHERAstar FS is used to read the testing signal, and its setting is as following:
For the original data read from each well, ratio=665 nm/620 nm; […]

Data set [3] in a line: In vivo pharmacokinetic study in rats. As for the experimental part: An In Vivo Pharmacokinetic Study in Rats
For intravenous injection, rats are given a dose of 1 mg/kg. For oral administration, rats are given a dose of 5 mg/kg. […] The whole blood is centrifuged at 8000 rpm for 5 min to collect plasma, which is then transferred to 96-well pallet, and stored at −20° C. till LC-MS/MS testing.
Pharmacokinetic parameters among rats after medication are estimated using the non-compartment model of software WinNonlin.
The peak concentration, Cmax: the actual measurements are used;

Data set [4] deals with U87MG tumor. Kind of data set: Tumor xenograft model, U87MG, tumor growth inhibition. It counts as in vivo, nude mice (BALB/cA nu/nu). Conditions: for Tumor growth inhibition rate, % TGI: day 22.
Data set [5] addresses c-Met (h) (Homo sapiens (Human), UniProt P08581). Kind of data set: HTRF KinEASE TK kinase inhibition assay, c-Met. It counts as biochemical.

Each structure is given as a SMILES string.

The values that follow come from patent US9938274B1, “Naphthyridine compounds, medical combinations and use thereof” (Nanjing Natinefy Pharmatech Co., Ltd., priority 2016, dated 2018).

Sequence of Axl kinase (P30530 26-894): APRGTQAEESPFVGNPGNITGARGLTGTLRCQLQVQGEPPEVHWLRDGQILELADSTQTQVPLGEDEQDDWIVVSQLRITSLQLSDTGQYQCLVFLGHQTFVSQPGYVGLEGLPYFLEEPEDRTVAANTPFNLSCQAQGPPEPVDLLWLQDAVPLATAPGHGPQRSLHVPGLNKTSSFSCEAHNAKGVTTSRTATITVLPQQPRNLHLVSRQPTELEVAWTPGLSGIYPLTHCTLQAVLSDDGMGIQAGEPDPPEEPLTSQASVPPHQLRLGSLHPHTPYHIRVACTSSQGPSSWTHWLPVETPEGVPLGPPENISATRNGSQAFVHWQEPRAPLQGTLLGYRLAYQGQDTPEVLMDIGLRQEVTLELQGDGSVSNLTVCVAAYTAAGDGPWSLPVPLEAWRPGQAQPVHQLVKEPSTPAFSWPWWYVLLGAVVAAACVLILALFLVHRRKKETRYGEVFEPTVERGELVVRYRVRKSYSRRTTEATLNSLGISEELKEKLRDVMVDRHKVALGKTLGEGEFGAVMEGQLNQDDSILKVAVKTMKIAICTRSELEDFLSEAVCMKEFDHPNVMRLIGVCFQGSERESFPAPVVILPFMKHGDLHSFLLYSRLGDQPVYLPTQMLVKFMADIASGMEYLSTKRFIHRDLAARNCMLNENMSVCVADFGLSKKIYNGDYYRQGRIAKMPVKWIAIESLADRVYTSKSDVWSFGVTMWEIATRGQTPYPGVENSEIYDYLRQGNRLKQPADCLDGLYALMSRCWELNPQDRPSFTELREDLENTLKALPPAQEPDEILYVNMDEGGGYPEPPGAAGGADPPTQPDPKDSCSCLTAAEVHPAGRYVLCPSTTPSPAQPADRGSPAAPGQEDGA
Sequence of RET (P07949 29-1114): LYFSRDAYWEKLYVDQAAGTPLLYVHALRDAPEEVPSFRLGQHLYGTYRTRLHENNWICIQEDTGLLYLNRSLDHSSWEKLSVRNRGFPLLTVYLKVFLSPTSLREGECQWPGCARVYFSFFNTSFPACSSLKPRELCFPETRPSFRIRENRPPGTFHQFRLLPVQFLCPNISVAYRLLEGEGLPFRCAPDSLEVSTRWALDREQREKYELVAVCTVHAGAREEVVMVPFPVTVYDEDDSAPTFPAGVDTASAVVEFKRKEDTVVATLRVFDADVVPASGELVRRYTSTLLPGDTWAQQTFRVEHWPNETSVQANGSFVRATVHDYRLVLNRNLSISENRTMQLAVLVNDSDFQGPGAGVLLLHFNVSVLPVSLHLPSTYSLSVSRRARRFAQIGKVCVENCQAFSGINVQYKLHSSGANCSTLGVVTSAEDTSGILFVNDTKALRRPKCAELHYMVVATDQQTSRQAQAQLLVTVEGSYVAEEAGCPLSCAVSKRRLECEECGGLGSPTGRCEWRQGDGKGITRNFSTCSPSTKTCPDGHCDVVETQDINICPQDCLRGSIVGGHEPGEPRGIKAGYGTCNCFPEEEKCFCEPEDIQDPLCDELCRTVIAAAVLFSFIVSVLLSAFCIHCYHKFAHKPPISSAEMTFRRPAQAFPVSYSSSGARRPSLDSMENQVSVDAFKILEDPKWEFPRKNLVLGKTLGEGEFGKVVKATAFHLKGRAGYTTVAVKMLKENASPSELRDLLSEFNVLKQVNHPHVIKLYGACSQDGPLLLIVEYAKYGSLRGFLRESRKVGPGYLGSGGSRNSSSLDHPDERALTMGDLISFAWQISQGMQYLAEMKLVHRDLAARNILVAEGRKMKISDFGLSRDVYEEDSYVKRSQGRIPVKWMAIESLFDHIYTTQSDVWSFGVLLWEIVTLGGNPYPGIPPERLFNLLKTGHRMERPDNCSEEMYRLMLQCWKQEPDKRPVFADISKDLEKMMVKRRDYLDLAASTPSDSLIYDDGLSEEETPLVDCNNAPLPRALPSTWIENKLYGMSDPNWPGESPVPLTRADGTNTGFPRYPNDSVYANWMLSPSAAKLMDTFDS
Sequence of c-Met (h) (P08581 25-1390): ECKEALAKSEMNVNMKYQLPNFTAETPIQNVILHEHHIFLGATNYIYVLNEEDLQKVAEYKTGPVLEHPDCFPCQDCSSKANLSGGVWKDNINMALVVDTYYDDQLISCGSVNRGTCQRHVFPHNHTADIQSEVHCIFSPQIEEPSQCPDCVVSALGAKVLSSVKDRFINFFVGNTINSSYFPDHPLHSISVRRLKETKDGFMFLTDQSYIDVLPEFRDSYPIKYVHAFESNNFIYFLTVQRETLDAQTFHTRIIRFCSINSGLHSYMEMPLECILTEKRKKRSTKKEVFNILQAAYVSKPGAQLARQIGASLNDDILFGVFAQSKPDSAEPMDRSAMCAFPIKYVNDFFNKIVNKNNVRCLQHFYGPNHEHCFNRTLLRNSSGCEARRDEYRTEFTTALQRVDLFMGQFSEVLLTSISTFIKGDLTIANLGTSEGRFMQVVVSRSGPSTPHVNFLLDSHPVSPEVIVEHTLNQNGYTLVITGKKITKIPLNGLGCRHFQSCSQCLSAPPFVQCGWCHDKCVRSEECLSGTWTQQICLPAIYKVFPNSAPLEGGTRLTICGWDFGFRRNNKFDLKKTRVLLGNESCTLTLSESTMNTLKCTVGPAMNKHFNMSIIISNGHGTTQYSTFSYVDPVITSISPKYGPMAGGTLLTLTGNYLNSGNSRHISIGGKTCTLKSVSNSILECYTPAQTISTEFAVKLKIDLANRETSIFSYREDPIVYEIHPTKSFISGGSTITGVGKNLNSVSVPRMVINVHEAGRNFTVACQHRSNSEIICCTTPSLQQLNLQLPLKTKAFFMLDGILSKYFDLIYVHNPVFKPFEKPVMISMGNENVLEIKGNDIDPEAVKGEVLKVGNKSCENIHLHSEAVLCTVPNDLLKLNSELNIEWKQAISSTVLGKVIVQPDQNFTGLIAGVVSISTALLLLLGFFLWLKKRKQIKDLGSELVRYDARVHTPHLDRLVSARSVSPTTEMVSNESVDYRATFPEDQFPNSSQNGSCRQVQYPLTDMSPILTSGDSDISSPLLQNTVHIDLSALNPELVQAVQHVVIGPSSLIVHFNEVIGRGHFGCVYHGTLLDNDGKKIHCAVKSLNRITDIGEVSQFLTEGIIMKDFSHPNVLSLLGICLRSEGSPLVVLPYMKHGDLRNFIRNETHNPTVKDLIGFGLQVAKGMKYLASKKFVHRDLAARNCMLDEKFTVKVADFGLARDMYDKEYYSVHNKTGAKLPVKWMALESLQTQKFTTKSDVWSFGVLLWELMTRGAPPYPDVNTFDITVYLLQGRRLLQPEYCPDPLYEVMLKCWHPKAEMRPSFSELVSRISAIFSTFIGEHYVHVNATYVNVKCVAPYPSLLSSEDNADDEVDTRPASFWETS

`CC(C)(O)COc1ccc2c(Oc3ccc(Nc4nccc5[nH]cc(-c6ccc(F)cc6)c(=O)c45)cc3F)ccnc2c1` [Example 4, 5-((3-fluoro-4-((7-(2-hydroxy-2-methylpropoxy)quinolin-4-yl)oxy)phenyl)amino)-3-(4-fluorophenyl)-1,6-naphthyridin-4(1H)-one]: 15.7 nM corresponded to half-maximal inhibition in data set [1] (IC50). Further, in data set [2], the IC50 (in general, the concentration at which inhibition is half-maximal) stood at 62 nM. In data set [3] (5 mg/kg i.g.), the CL was 2 mL/min/kg and the Vz (as a rule, the apparent volume that relates the amount in the body to the concentration in plasma or blood) stood at 1.46 L/kg. Also, in data set [3] (rat, plasma, iv, 1 mg/kg i.v.), the AUC(0-t) (in general, the area under the concentration-time curve up to a stated or last time point) was 11500 ng·h/mL; the concentration peaked (Cmax) at 10800 ng/mL; the clearance – broadly, a measure of how efficiently the substance is removed, as volume per time – was 0.5 mL/min/kg; the half-life (in general, the time needed for the level to fall by half in the phase considered) was 9.97 h. Also, the Vd in data set [3] (rat, plasma, iv, 1 mg/kg i.v., read-out: Vz) is 0.47 L/kg. Besides, the bioavailability (commonly the share of a dose that reaches the circulation, judged against a reference dose that is usually intravenous) in data set [3] (rat, plasma, oral, 5 mg/kg i.g. vs 1 mg/kg i.v., read-out: F (absolute bioavailability)) was 71.8%. Besides, in data set [3] (rat, plasma, po, 5 mg/kg i.g.), the AUC(0-t) was determined as 41300 ng·h/mL; the Cmax (in general, the peak of the concentration-time curve) was determined as 4310 ng/mL; the half-life was 8.37 h. Besides, the “Tumor growth inhibition rate, % TGI” value in data set [4] (3 mg/kg p.o. QD) is 87.0%. Moreover, the “Tumor growth inhibition rate, % TGI” value in data set [4] (10 mg/kg p.o. QD) was 105.9%. In addition, the “Regression of tumor (tumor regression rate)” value in data set [4] (6 animals per group) is “is 100% (6/6)”.
As for `CC(C)(O)COc1ccc2c(Oc3ccc(Nc4nccc5[nH]cc(-c6ccccc6)c(=O)c45)cc3F)ccnc2c1` [Example 7, 5-((3-fluoro-4-((7-(2-hydroxy-2-methylpropoxy)quinolin-4-yl)oxy)phenyl)amino)-3-phenyl-1,6-naphthyridin-4(1H)-one], the IC50 in data set [5] turned out to be 7.4 nM; in data set [1], 14.9 nM; in data set [2] it was 53 nM.
